In brackets after ≈: the same amount, converted by molar mass.
Key:
in vivo [1] = conditions: rat, po, 3.35 mg/kg
in vitro [2] = conditions: human, plasma
in vivo [3] = conditions: rat, iv, 3.35 mg/kg
Staphylococcus aureus [4] = assay: microbe, parasite or virus in culture; conditions: ATCC 49951
Enterococcus faecalis = assay: microbe, parasite or virus in culture; conditions: ATCC 29212
in vivo [5] = conditions: rat, po, 3.35 mg/kg; remark: listed apart in the source
HepG2 = assay: cells; conditions: Homo sapiens, HepG2, 72 h
in vivo [6] = conditions: rat, po, 3.35 mg/kg; remark: listed apart in the source
Staphylococcus aureus [7] = assay: microbe, parasite or virus in culture; conditions: ATCC 49951; remark: listed apart in the source
Staphylococcus aureus [8] = assay: microbe, parasite or virus in culture; conditions: ATCC 49951; remark: listed apart in the source
in vitro [9] = conditions: human, Caco-2
in vivo [10] = conditions: rat, iv, 3.35 mg/kg; remark: listed apart in the source
Streptococcus pneumoniae = assay: microbe, parasite or virus in culture; conditions: ATCC 49619
physchem [11] = assay: physchem
in vitro [12] = conditions: human, Caco-2; remark: listed apart in the source
in vivo [13] = conditions: rat, po, 3.35 mg/kg; remark: listed apart in the source
physchem [14] = conditions: buffer, pH 7
in vitro [15] = conditions: Sprague-Dawley, rat, plasma
in vitro [16] = conditions: CD1, mouse, plasma
physchem [17] = conditions: octanol/water, pH 7.4
K562 = assay: cells; conditions: Homo sapiens, K562, 72 h
in vivo [18] = conditions: rat, 5 mg/kg
in vivo [19] = conditions: dog, iv, 0.125 mg/kg
in vivo [20] = conditions: dog, po, 1 mg/kg
in vivo [21] = conditions: rat, iv
hERG (KCNH2) = hERG (KCNH2) (Homo sapiens, UniProt Q12809); assay: in vitro; conditions: CHO-K1 cells expressing human ERG
hERG (KCNH2), sequence (Q12809 whole entry): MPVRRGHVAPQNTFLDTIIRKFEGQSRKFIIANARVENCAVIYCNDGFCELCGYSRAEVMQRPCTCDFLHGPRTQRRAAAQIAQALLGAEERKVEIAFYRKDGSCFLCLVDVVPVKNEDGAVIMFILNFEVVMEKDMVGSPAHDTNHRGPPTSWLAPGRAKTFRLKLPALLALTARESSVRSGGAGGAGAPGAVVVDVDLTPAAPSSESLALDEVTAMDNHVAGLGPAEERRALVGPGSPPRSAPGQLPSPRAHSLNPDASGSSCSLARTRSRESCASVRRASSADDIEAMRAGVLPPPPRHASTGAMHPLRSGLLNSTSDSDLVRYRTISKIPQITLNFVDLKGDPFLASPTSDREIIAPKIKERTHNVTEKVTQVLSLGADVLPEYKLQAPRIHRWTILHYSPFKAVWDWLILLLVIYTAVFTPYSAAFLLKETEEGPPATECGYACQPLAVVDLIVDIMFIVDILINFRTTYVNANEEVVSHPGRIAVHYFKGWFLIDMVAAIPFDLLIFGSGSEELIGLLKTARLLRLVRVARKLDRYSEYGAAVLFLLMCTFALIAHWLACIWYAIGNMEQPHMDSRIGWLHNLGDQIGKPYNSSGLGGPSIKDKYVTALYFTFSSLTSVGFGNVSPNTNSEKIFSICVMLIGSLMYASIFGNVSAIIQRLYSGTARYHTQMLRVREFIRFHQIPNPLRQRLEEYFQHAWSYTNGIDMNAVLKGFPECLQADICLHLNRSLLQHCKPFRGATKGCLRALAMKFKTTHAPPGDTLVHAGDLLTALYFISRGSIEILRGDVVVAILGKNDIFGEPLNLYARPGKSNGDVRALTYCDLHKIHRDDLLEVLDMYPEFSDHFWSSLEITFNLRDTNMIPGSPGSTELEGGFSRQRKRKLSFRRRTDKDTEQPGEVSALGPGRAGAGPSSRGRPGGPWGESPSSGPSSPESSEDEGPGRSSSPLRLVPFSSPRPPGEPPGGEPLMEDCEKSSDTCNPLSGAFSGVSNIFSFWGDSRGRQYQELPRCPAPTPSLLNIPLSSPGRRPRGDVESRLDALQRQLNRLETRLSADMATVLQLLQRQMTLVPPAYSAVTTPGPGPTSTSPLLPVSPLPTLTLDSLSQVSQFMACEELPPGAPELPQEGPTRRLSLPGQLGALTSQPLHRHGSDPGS

in vivo [22] = conditions: rat, po, 5 mg/kg
in vivo [23] = conditions: rat, 5 mg/kg; remark: listed apart in the source
in vivo [24] = conditions: mouse, po, 5 mg/kg
in vivo [25] = conditions: rat, po, 5 mg/kg; remark: listed apart in the source
in vivo [26] = conditions: mouse, po, 5 mg/kg; remark: listed apart in the source
in vivo [27] = conditions: dog, 1 mg/kg
in vivo [28] = conditions: dog, po, 1 mg/kg; remark: listed apart in the source
in vivo [29] = conditions: rat, po, 5 mg/kg; remark: listed apart in the source
in vivo [30] = conditions: mouse, po, 5 mg/kg; remark: listed apart in the source
in vivo [31] = conditions: rat, po, 5 mg/kg; remark: listed apart in the source
in vivo [32] = conditions: dog, po, 1 mg/kg; remark: listed apart in the source
in vivo [33] = conditions: mouse, iv
in vivo [34] = conditions: mouse, 5 mg/kg
in vivo [35] = conditions: mouse, po, 5 mg/kg; remark: listed apart in the source

SMILES	fraction unbound at 4 h, 10 µM (in vitro [2])	MIC (Staphylococcus aureus [4]) [µg/mL]	MIC (Enterococcus faecalis) [µg/mL]	EC50 (HepG2) [µM]	MIC (Staphylococcus aureus [7]) [µg/mL]	MIC (Staphylococcus aureus [8]) [µg/mL]	Papp A→B at 2 h, 10 µM (in vitro [9]) [×10⁻⁶ cm/s]	MIC (Streptococcus pneumoniae) [µg/mL]	pKa (physchem [11])	efflux ratio (in vitro [12])	solubility at 24 h (physchem [14]) [µg/mL]	fraction unbound at 4 h, 10 µM (in vitro [15])	fraction unbound at 4 h, 10 µM (in vitro [16])	logD (physchem [17])	EC50 (K562) [µM]	further results
Cc1c(N2CC[C@@H](C3(N)CC3)C2)c(F)cc2cc(C(=O)O)c(=O)n(C3CC3)c12	0.21	0.5 (≈ 1.3 µM)	0.25 (≈ 0.649 µM)	> 100	1 (≈ 2.59 µM)	0.06 (≈ 0.156 µM)	23.1	≤ 0.03	5.1	0.91	623 (≈ 1620 µM)	0.3	0.49	-0.34	> 100	AUC(0-inf) at 24 h (in vivo [1]): 5.85 µM·h; Vd at 24 h (in vivo [3]): 0.75 L/kg; bioavailability at 24 h (in vivo [5]): 70%; Cmax at 24 h (in vivo [6]): 1710 nM; half-life at 24 h (in vivo [10]): 2.56 h; Tmax at 24 h (in vivo [13]): 0.67 h
C[C@H]1COc2c(N3CC[C@@H](C4(N)CC4)C3)c(F)cc3cc(C(=O)O)c(=O)n1c23	0.76	0.5 (≈ 1.29 µM)	0.25 (≈ 0.645 µM)	> 100	2 (≈ 5.16 µM)	0.25 (≈ 0.645 µM)	20	0.06 (≈ 0.155 µM)	4.9	0.9	1270 (≈ 3270 µM)	0.63	0.87	-0.9	> 100	Vd at 24 h (in vivo [18]): 1.09 L/kg; half-life at 24 h (in vivo [19]): 9.95 h; AUC(0-inf) at 24 h (in vivo [20]): 19 µM·h; half-life at 24 h (in vivo [21]): 4.64 h; inhibition at 300 µM (hERG (KCNH2)): 27%; Cmax at 24 h (in vivo [22]): 1350 nM; clearance at 24 h (in vivo [23]): 3.26 mL/min/kg; bioavailability at 24 h (in vivo [24]): 92%; AUC(0-inf) at 24 h (in vivo [25]): 8.68 µM·h; Tmax at 24 h (in vivo [26]): 2 h; Vd at 24 h (in vivo [27]): 1.91 L/kg; Cmax at 24 h (in vivo [28]): 1350 nM; bioavailability at 24 h (in vivo [29]): 65%; AUC(0-inf) at 24 h (in vivo [30]): 4.3 µM·h; Tmax at 24 h (in vivo [31]): 2.7 h; Tmax at 24 h (in vivo [32]): 4 h; half-life at 24 h (in vivo [33]): 3.36 h; Vd at 24 h (in vivo [34]): 1.88 L/kg; Cmax at 24 h (in vivo [35]): 490 nM
